Patent publication US20130216666A1, “CASHEW NUT SHELL LIQUID WITH IMPROVED STABILITY” (IDEMITSU KOSAN CO., LTD., priority 2010, published 2013)
Where two headings read alike, the source gives them in different places.

Legend:
[1] = Inhibition of decarboxylation reaction in unheated cashew nut shell liquid formulation (silica), phosphoric acid / phosphate; assay type: physicochemical; settings: 80° C.; for Anacardic Acid 15:1 Composition (%) / Anacardic Acid 15:1 concentration / Anacardic Acid 15:2 Composition (%) / Anacardic Acid 15:2 concentration / Anacardic Acid 15:3 Composition (%) / Anacardic Acid 15:3 concentration / Cardanol 15:1 Composition (%) / Cardanol 15:1 concentration / Cardanol 15:2 Composition (%) / Cardanol 15:2 concentration / Cardanol 15:3 Composition (%) / Cardanol 15:3 concentration: 10% by weight in unheated CNSL, mixed with silica; for inhibition of the decarboxylation: formulation with silica, 10% by weight, 3 days
Description: 10 g of silica (Sipernat 22) was placed into each of beakers. […] The sodium dihydrogen phosphate was added as an aqueous solution.

[2] = 80° C.; for Anacardic Acid 15:1 Composition (%) / Anacardic Acid 15:1 concentration / Anacardic Acid 15:2 Composition (%) / Anacardic Acid 15:2 concentration / Anacardic Acid 15:3 Composition (%) / Anacardic Acid 15:3 concentration / Cardanol 15:1 concentration / Cardanol 15:2 Composition (%) / Cardanol 15:2 concentration / Cardanol 15:3 Composition (%) / Cardanol 15:3 concentration / Cardanol 15:1 Composition (%): 10% by weight in unheated CNSL; for inhibition of the decarboxylation: 10% by weight, three days
[3] = Inhibition of decarboxylation reaction in feed; settings: 10% by weight in unheated CNSL, 80° C.; for Anacardic Acid 15:1 Composition (%) / Anacardic Acid 15:1 concentration / Anacardic Acid 15:2 Composition (%) / Anacardic Acid 15:2 concentration / Anacardic Acid 15:3 Composition (%) / Anacardic Acid 15:3 concentration / Cardanol 15:1 Composition (%) / Cardanol 15:1 concentration / Cardanol 15:2 Composition (%) / Cardanol 15:2 concentration / Cardanol 15:3 Composition (%) / Cardanol 15:3 concentration: silica composition 1% by weight in feed;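 also: ethyl acetate extract of test feed analysed by reversed-phase C18 HPLC with absorbance detection at 280 nm, giving component composition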
Description: The analysis was carried out under the conditions of a solvent composition of acetonitrile: water: acetic acid =80:20:1 (based on volume), a flow rate of 2 ml/min, a temperature of 25° C., and an absorbance of 280 nm.
Samples were taken from the beakers after 3 days and analyzed for composition by HPLC.
For HPLC analysis, soluble fractions of the test feed was extracted with ethyl acetate and then filtered and dried to concentrate it to 5 mg/ml.

With `O=P(O)(O)O` [Phosphoric Acid, phosphoric acid] the “Anacardic Acid 15:1 Composition (%)” value ([1]; Day 0) was 40.20%, the “Anacardic Acid 15:1 concentration” value ([1]; Day 0) was 563.78 ppm and the “Anacardic Acid 15:2 Composition (%)” value ([1]; Day 0) was 14.00%. For the same compound, the “Anacardic Acid 15:2 concentration” value ([1]; Day 0) was 196.40 ppm, the “Anacardic Acid 15:3 Composition (%)” value ([1]; Day 0) was 32.21% and the “Anacardic Acid 15:3 concentration” value ([1]; Day 0) was 451.72 ppm. The “Cardanol 15:1 Composition (%)” value ([1]; Day 0) was 5.74%, the “Cardanol 15:1 concentration” value ([1]; Day 0) was 80.56 ppm and the “Cardanol 15:2 Composition (%)” value ([1]; Day 0) was 2.45%. The “Cardanol 15:2 concentration” value ([1]; Day 0) was 34.39 ppm, the “Cardanol 15:3 Composition (%)” value ([1]; Day 0) was 5.39% and the “Cardanol 15:3 concentration” value ([1]; Day 0) was 75.66 ppm. The “Anacardic Acid 15:1 Composition (%)” value ([1]; Day 3) was 38.30%, the “Anacardic Acid 15:1 concentration” value ([1]; Day 3) was 496.13 ppm and the “Anacardic Acid 15:2 Composition (%)” value ([1]; Day 3) was 13.34%. The “Anacardic Acid 15:2 concentration” value ([1]; Day 3) was 172.83 ppm, the “Anacardic Acid 15:3 Composition (%)” value ([1]; Day 3) was 30.69% and the “Anacardic Acid 15:3 concentration” value ([1]; Day 3) was 397.52 ppm. The “Cardanol 15:1 Composition (%)” value ([1]; Day 3) was 7.46%, the “Cardanol 15:1 concentration” value ([1]; Day 3) was 96.68 ppm and the “Cardanol 15:2 Composition (%)” value ([1]; Day 3) was 3.19%. For the same compound, the “Cardanol 15:2 concentration” value ([1]; Day 3) was 41.27 ppm, the “Cardanol 15:3 Composition (%)” value ([1]; Day 3) was 7.01% and the “Cardanol 15:3 concentration” value ([1]; Day 3) was 90.79 ppm. For the same compound, the “inhibition of the decarboxylation” value [1] was “significant inhibition”, the “Anacardic Acid 15:1 Composition (%)” value ([2]; Day 0) was 32.73% and the “Anacardic Acid 15:1 concentration” value ([2]; Day 0) was 978 ppm. For the same compound, the “Anacardic Acid 15:2 Composition (%)” value ([2]; Day 0) was 18.69%, the “Anacardic Acid 15:2 concentration” value ([2]; Day 0) was 559 ppm and the “Anacardic Acid 15:3 Composition (%)” value ([2]; Day 0) was 42.99%. The “Anacardic Acid 15:3 concentration” value ([2]; Day 0) was 1285 ppm, the “Cardanol 15:1 concentration” value ([2]; Day 0) was 46 ppm and the “Cardanol 15:2 Composition (%)” value ([2]; Day 0) was 1.26%. For the same compound, the “Cardanol 15:2 concentration” value ([2]; Day 0) was 38 ppm, the “Cardanol 15:3 Composition (%)” value ([2]; Day 0) was 2.78% and the “Cardanol 15:3 concentration” value ([2]; Day 0) was 83 ppm. The “Anacardic Acid 15:1 Composition (%)” value ([2]; Day 3) was 32.55%, the “Anacardic Acid 15:1 concentration” value ([2]; Day 3) was 968 ppm and the “Anacardic Acid 15:2 Composition (%)” value ([2]; Day 3) was 18.61%. The “Anacardic Acid 15:2 concentration” value ([2]; Day 3) was 554 ppm, the “Anacardic Acid 15:3 Composition (%)” value ([2]; Day 3) was 42.80% and the “Anacardic Acid 15:3 concentration” value ([2]; Day 3) was 1273 ppm. For the same compound, the “Cardanol 15:1 concentration” value ([2]; Day 3) was 46 ppm, the “Cardanol 15:2 Composition (%)” value ([2]; Day 3) was 1.41% and the “Cardanol 15:2 concentration” value ([2]; Day 3) was 42 ppm. For the same compound, the “Cardanol 15:3 Composition (%)” value ([2]; Day 3) was 3.10%, the “Cardanol 15:3 concentration” value ([2]; Day 3) was 92 ppm and the “inhibition of the decarboxylation” value [2] was “significant inhibition”. The “stability of the shell liquid in the feed (progress of the decarboxylation)” value ([3]; in feed, 3 days) was “stable in the feed without progress of the decarboxylation”, the “Anacardic Acid 15:1 Composition (%)” value ([3]; Day 0) was 40.28% and the “Anacardic Acid 15:1 concentration” value ([3]; Day 0) was 363.92 ppm. The “Anacardic Acid 15:2 Composition (%)” value ([3]; Day 0) was 13.76%, the “Anacardic Acid 15:2 concentration” value ([3]; Day 0) was 124.28 ppm and the “Anacardic Acid 15:3 Composition (%)” value ([3]; Day 0) was 33.11%. The “Anacardic Acid 15:3 concentration” value ([3]; Day 0) was 299.13 ppm, the “Cardanol 15:1 Composition (%)” value ([3]; Day 0) was 5.39% and the “Cardanol 15:1 concentration” value ([3]; Day 0) was 48.69 ppm. For the same compound, the “Cardanol 15:2 Composition (%)” value ([3]; Day 0) was 2.31%, the “Cardanol 15:2 concentration” value ([3]; Day 0) was 20.83 ppm and the “Cardanol 15:3 Composition (%)” value ([3]; Day 0) was 5.15%. The “Cardanol 15:3 concentration” value ([3]; Day 0) was 46.52 ppm, the “Anacardic Acid 15:1 Composition (%)” value ([3]; Day 3) was 39.75% and the “Anacardic Acid 15:1 concentration” value ([3]; Day 3) was 345.72 ppm. The “Anacardic Acid 15:2 Composition (%)” value ([3]; Day 3) was 13.57%, the “Anacardic Acid 15:2 concentration” value ([3]; Day 3) was 118.06 ppm and the “Anacardic Acid 15:3 Composition (%)” value ([3]; Day 3) was 32.67%. The “Anacardic Acid 15:3 concentration” value ([3]; Day 3) was 284.18 ppm, the “Cardanol 15:1 Composition (%)” value ([3]; Day 3) was 5.88% and the “Cardanol 15:1 concentration” value ([3]; Day 3) was 51.13 ppm. For the same compound, the “Cardanol 15:2 Composition (%)” value ([3]; Day 3) was 2.51%, the “Cardanol 15:2 concentration” value ([3]; Day 3) was 21.87 ppm and the “Cardanol 15:3 Composition (%)” value ([3]; Day 3) was 5.62%. The “Cardanol 15:3 concentration” value ([3]; Day 3) was 48.85 ppm.
In the case of `O=P([O-])(O)O.[Na+]` [Sodium Dihydrogen Phosphate, sodium dihydrogen phosphate], the “Anacardic Acid 15:1 Composition (%)” value ([1]; Day 0) is reported as 40.20%, the “Anacardic Acid 15:1 concentration” value ([1]; Day 0) is reported as 563.78 ppm and the “Anacardic Acid 15:2 Composition (%)” value ([1]; Day 0) is reported as 14.00%. For the same compound, the “Anacardic Acid 15:2 concentration” value ([1]; Day 0) was 196.40 ppm, the “Anacardic Acid 15:3 Composition (%)” value ([1]; Day 0) was 32.21% and the “Anacardic Acid 15:3 concentration” value ([1]; Day 0) was 451.72 ppm. For the same compound, the “Cardanol 15:1 Composition (%)” value ([1]; Day 0) was 5.74%, the “Cardanol 15:1 concentration” value ([1]; Day 0) was 80.56 ppm and the “Cardanol 15:2 Composition (%)” value ([1]; Day 0) was 2.45%. The “Cardanol 15:2 concentration” value ([1]; Day 0) was 34.39 ppm, the “Cardanol 15:3 Composition (%)” value ([1]; Day 0) was 5.39% and the “Cardanol 15:3 concentration” value ([1]; Day 0) was 75.66 ppm. The “Anacardic Acid 15:1 Composition (%)” value ([1]; Day 3) was 32.90%, the “Anacardic Acid 15:1 concentration” value ([1]; Day 3) was 502.26 ppm and the “Anacardic Acid 15:2 Composition (%)” value ([1]; Day 3) was 11.28%. The “Anacardic Acid 15:2 concentration” value ([1]; Day 3) was 172.11 ppm, the “Anacardic Acid 15:3 Composition (%)” value ([1]; Day 3) was 25.93% and the “Anacardic Acid 15:3 concentration” value ([1]; Day 3) was 395.86 ppm. The “Cardanol 15:1 Composition (%)” value ([1]; Day 3) was 13.16%, the “Cardanol 15:1 concentration” value ([1]; Day 3) was 200.81 ppm and the “Cardanol 15:2 Composition (%)” value ([1]; Day 3) was 5.23%. For the same compound, the “Cardanol 15:2 concentration” value ([1]; Day 3) was 79.82 ppm, the “Cardanol 15:3 Composition (%)” value ([1]; Day 3) was 11.50% and the “Cardanol 15:3 concentration” value ([1]; Day 3) was 175.60 ppm. The “inhibition of the decarboxylation” value [1] was “moderate inhibition”, the “Anacardic Acid 15:1 Composition (%)” value ([2]; Day 0) was 39.93% and the “Anacardic Acid 15:1 concentration” value ([2]; Day 0) was 1103 ppm. The “Anacardic Acid 15:2 Composition (%)” value ([2]; Day 0) was 14.10%, the “Anacardic Acid 15:2 concentration” value ([2]; Day 0) was 389 ppm and the “Anacardic Acid 15:3 Composition (%)” value ([2]; Day 0) was 32.43%. For the same compound, the “Anacardic Acid 15:3 concentration” value ([2]; Day 0) was 896 ppm, the “Cardanol 15:1 Composition (%)” value ([2]; Day 0) was 5.46% and the “Cardanol 15:1 concentration” value ([2]; Day 0) was 151 ppm. The “Cardanol 15:2 Composition (%)” value ([2]; Day 0) was 2.52%, the “Cardanol 15:2 concentration” value ([2]; Day 0) was 70 ppm and the “Cardanol 15:3 Composition (%)” value ([2]; Day 0) was 5.55%. The “Cardanol 15:3 concentration” value ([2]; Day 0) was 153 ppm, the “Anacardic Acid 15:1 Composition (%)” value ([2]; Day 3) was 30.94% and the “Anacardic Acid 15:1 concentration” value ([2]; Day 3) was 964 ppm. The “Anacardic Acid 15:2 Composition (%)” value ([2]; Day 3) was 10.81%, the “Anacardic Acid 15:2 concentration” value ([2]; Day 3) was 337 ppm and the “Anacardic Acid 15:3 Composition (%)” value ([2]; Day 3) was 24.87%. For the same compound, the “Anacardic Acid 15:3 concentration” value ([2]; Day 3) was 774 ppm, the “Cardanol 15:1 Composition (%)” value ([2]; Day 3) was 14.32% and the “Cardanol 15:1 concentration” value ([2]; Day 3) was 446 ppm. The “Cardanol 15:2 Composition (%)” value ([2]; Day 3) was 5.95%, the “Cardanol 15:2 concentration” value ([2]; Day 3) was 185 ppm and the “Cardanol 15:3 Composition (%)” value ([2]; Day 3) was 13.10%. For the same compound, the “Cardanol 15:3 concentration” value ([2]; Day 3) was 408 ppm and the “inhibition of the decarboxylation” value [2] was “moderate inhibition”.
